Assays:
Format in all cases: cell-based
C4-2B cells = experiment: MTT assay of B7H3-ADCs against C4-2B tumor cells; conditions: 6000 cells, 96 h incubation
PC3-4H7 cells = experiment: MTT assay of B7H3-ADCs against PC3-4H7 tumor cells; conditions: 6000 cells, 96 h incubation
Excerpt: Parent cell line PC-3 from Nanjing Cobioer Biosciences Co., was introduced with plasmid coexpress both human PSMA and RFP-Neomycin fusion protein and plasmid coexpress human Steap1 and GFP-Blasticidin fusion protein. The high expression cells were selected by neomycin and Blasticidin, and the selected clone 4H7 having high expression of both PSMA and Steapl was verified by FACs and chosen for further use in vitro and in vivo study.
The cell lines used in the cytotoxicity assays were: C4-2B Cells which was obtained from ATCC through license agreement with MD Anderson Cancer Center, Houston, TX, USA. 22RV1, U87, NCI-N87, MKN-7, JIMT-1, SU86.86, SW1990, OVCAR-3, Calu-3, A431, AsPC-1, HCC827 and H1975 cells were purchased from ATCC, Nanjing Cobioer and The Cell Bank of Shanghai Institute of Biochemistry and Cell Biology, and the others. C4-2B and PC-3-4H7 are both Steap1 and PSMA antigen high express cells, but medium expressed of both B7H3 and DLL3 antigens. 22RV1 is low express cells for Steapl, PSMA, B7H3 and DLL3 antigens. U87 is glioblastoma (GBM) cells, NCI-N87 and MKN-7 cell line are stable models of the gastric epithelium. […] After it was shaken for 15 min, the absorbance was measured at 490 nm and 570 nm with a reference filter of 620 nm. The inhibition % was calculated according to the following equation: inhibition % =[1-(assay-blank)/(control-blank)]x 100.

22RV1 cells = experiment: MTT assay of B7H3-ADCs against 22RV1 tumor cells; conditions: Homo sapiens, 6000 cells, 96 h incubation
NCI-N87 cells = experiment: MTT assay of BsHer2-ADCs against NCI-N87 cells; conditions: Homo sapiens, BsHer2 (trastuzumab/pertuzumab)-ADCs, 5000 cells, 96 h incubation
MKN-7 cells = experiment: MTT assay of BsHer2-ADCs against MKN-7 cells; conditions: Homo sapiens, BsHer2 (trastuzumab/pertuzumab)-ADCs, 5000 cells, 96 h incubation
SW1990 cells = experiment: MTT assay of BsHer2-ADCs against SW1990 cells; conditions: Homo sapiens, BsHer2 (trastuzumab/pertuzumab)-ADCs, 5000 cells, 96 h incubation
SU86.86 cells = experiment: MTT assay of BsHer2-ADCs against SU86.86 cells; conditions: Homo sapiens, SU.86.86, BsHer2 (trastuzumab/pertuzumab)-ADCs, 5000 cells, 96 h incubation

CC(=O)O[C@H]1C(=O)[C@@]2(C)[C@H]([C@H](OC(=O)c3ccccc3)[C@]3(O)C[C@H](OC(=O)[C@H](O)[C@@H](NC(=O)c4ccccc4)c4ccccc4)C(C)=C1C3(C)C)[C@]1(OC(C)=O)CO[C@@H]1C[C@@H]2O [Paclitaxel]
IC50 (C4-2B cells): 1.59 nM
IC50 (PC3-4H7 cells): 2.03 nM
IC50 (22RV1 cells): 1.85 nM
IC50 (NCI-N87 cells): 0.76 nM
IC50 (MKN-7 cells): 10.2 nM
IC50 (SW1990 cells): 0.042 nM
IC50 (SU86.86 cells): 2.98 nM
